Data from publication PMC7827481, “Development of A Continuous Fluorescence-Based Assay for N-Terminal Acetyltransferase D” (International Journal of Molecular Sciences, 2021).
Each block holds one molecule with its values, some of them ahead of it.

Columns and labels:
[1] = target: T1, N-terminal acetyltransferase D (NatD) (Homo sapiens, UniProt Q86UY6); assay: ThioGlo4 fluorescence acetyltransferase assay; assay type: biochemical
T1 construct: gene NAA40; full-length human NatD, untagged

[2] = target: T1, N-terminal acetyltransferase D (NatD); assay: ThioGlo4 fluorescence acetyltransferase assay; confirmed by MALDI-MS (IC50 […]); assay type: biochemical
[3] = target: T1, N-terminal acetyltransferase D (NatD); assay: MALDI-MS acetylation inhibition at […] (also […], […] in fluorescence assay); assay type: biochemical
[4] = target: T1, N-terminal acetyltransferase D (NatD); assay: ThioGlo4 fluorescence acetyltransferase assay; confirmed by MALDI-MS ([…] at […]); assay type: biochemical
[5] = system: CC(=O)SCCNC(=O)CCNC(=O)[C@H](O)C(C)(C)COP(=O)(O)OP(=O)(O)OC[C@H]1O[C@@H](n2cnc3c(N)ncnc32)[C@H](O)[C@@H]1OP(=O)(O)O; assay: purified protein; conditions: AcCoA binding site

- IC50 [1]: 38 ± 2 µM
Molecule: C[C@H](NC(=O)/C(C#N)=C/c1ccc(O)c(O)c1)c1ccccc1 [AG 835]

- IC50 [2]: 1.5 ± 0.1 µM
Molecule: O=C(O)C1=CC(=C(c2ccc(O)c(C(=O)O)c2)c2ccc(O)c(C(=O)O)c2)C=CC1=O [P1401K09, aurintricarboxylic acid]

Molecule: Nc1c(S(=O)(=O)O)cc(Nc2ccc(Nc3nc(Cl)nc(Nc4cccc(S(=O)(=O)O)c4)n3)c(S(=O)(=O)O)c2)c2c1C(=O)c1ccccc1C2=O [P1404C10, Reactive blue 2]
- inhibition at 10 µM [3]: 100%

- IC50 [4]: 63 ± 4 µM
Molecule: C[C@@H](NC(=O)/C(C#N)=C/c1ccc(O)c(O)c1)c1ccccc1 [P1404L15, tyrphostin B44(-)]

Molecule: N-terminal acetyltransferase D (NatD) (Homo sapiens)
- Km [5]: 0.5 ± 0.06 µM
